Laboratory results: US20230248785A1, “METHODS AND COMPOSITIONS FOR TREATING METABOLIC CONDITIONS” (BACTANA CORP., priority 2020, published 2023)

Test system: C57BL/6J mice on high-fat diet (prediabetes)
Test: Fasting blood glucose in prediabetic high-fat diet mice treated with FPZ, metformin or the combination (Example 6)
Type: in vivo
Details: after 2 weeks of daily oral gavage, 100 mg/kg; control gavaged with water
Experimental: The study uses 29 C57BL/6J mice, which are placed on a high-fat diet and allowed to develop prediabetes. The mice are fasted for 16 h, and the fasting blood glucose levels are measured to be greater than 105 mg/dL. The mice are divided up into control and treatment groups, and they are treated daily for 7 weeks with either 100 mg/kg FPZ, 100 mg/kg metformin, or a combination of FPZ with metformin, given by oral gavage. Fasting blood glucose are recorded at 2, 4, and 7 weeks of treatment.

CN(C)C(=N)N=C(N)N [metformin]
reduction in fasting blood glucose level compared to the control group: 24%
